Results reported in ChEMBL document CHEMBL6120947, “Synthesis and Antiosteoporotic Characterization of Diselenyl Maleimides: Discovery of a Potent Agent for the Treatment of Osteoporosis by Targeting RANKL” (J Med Chem, 2024).
pKd: −log10 of the molar value. Activity calls are given as the source filed them. The calls are words filed in the database; no cut-off is given here.

Key:
[1] = biological target: T1, Tumor necrosis factor ligand superfamily member 11 (Homo sapiens, UniProt O14788); assay: Binding affinity to CM5 sensor chip-immobilized RANKL (unknown origin) assessed as dissociation constant by SPR analysis
T1 sequence (O14788 whole entry): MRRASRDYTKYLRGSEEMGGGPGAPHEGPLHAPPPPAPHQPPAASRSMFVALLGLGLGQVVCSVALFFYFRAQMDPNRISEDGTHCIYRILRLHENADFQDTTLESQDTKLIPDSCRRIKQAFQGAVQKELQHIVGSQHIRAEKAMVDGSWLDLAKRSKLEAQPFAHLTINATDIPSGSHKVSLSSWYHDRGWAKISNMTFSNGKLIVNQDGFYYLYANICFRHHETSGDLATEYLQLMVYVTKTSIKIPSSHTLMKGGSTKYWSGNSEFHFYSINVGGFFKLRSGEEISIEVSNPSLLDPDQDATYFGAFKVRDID

[2] = Toxicity in OVX-induced osteoporosis C57BL/6 mouse model assessed as pathological change in kidney at 10 mg/kg, po administered every other day for 8 weeks by H and E staining based analysis; format: organism-based; settings: in vivo, 1344 h
Mus musculus [3] = assay: Anti-osteoporosis effect in OVX-induced osteoporosis C57BL/6 mouse model assessed as improvement of bone surface in femur at 10 mg/kg, po administered every other day for 8 weeks by H and E staining based analysis; format: functional, organism-based
BMDM [4] = assay: Effect in p38 level in M-CSF/RANKL-induced osteoclast differentiation in C57BL/6J mouse BMDM cells at 1 uM measured upto 60 mins by Western blot analysis; format: functional, cell-based
BMDM [5] = assay: Inhibition of osteoclastogenesis in M-CSF/RANKL-induced osteoclast differentiation in C57BL/6J mouse BMDM cells assessed as reduction in p65 phosphorylation at 1 uM measured upto 60 mins by Western blot analysis; format: functional, cell-based
MC3T3-E1 [6] = assay: Effect on osteoblast differentiation in mouse MC3T3-E1 cells assessed as change in collagen I mRNA level at 0.5 to 2 uM incubated for 7 days by qRT-PCR analysis; format: functional, cell-based; settings: dose 0.5-2 µM, time 7.0 day
MC3T3-E1 [7] = assay: Effect on osteoblast differentiation in mouse MC3T3-E1 cells assessed as change in ALP mRNA level at 0.5 to 2 uM incubated for 7 days by qRT-PCR analysis; format: functional, cell-based; settings: dose 0.5-2 µM, time 7.0 day
[8] = Toxicity in OVX-induced osteoporosis C57BL/6 mouse model assessed as adverse event at 10 mg/kg, po administered every other day for 8 weeks; format: organism-based; settings: in vivo, 1344 h
BMDM [9] = assay: Effect in ERK level in M-CSF/RANKL-induced osteoclast differentiation in C57BL/6J mouse BMDM cells at 1 uM measured upto 60 mins by Western blot analysis; format: functional, cell-based
[10] = Toxicity in OVX-induced osteoporosis C57BL/6 mouse model assessed as animal fatality at 10 mg/kg, po administered every other day for 8 weeks; format: organism-based; settings: in vivo, 1344 h
MC3T3-E1 [11] = assay: Effect on osteoblast differentiation in mouse MC3T3-E1 cells assessed as change in collagen I level at 0.5 to 2 uM incubated for 7 days by Western blot analysis; format: functional, cell-based; settings: dose 0.5-2 µM, time 7.0 day
BMDM [12] = assay: Inhibition of osteoclastogenesis in M-CSF/RANKL-induced osteoclast differentiation in C57BL/6J mouse BMDM cells assessed as reduction in c-Fos mRNA level measured after 5 days by qRT-PCR analysis; format: functional, cell-based; settings: dose <= 2.0 µM, time 5.0 day
BMDM [13] = assay: Inhibition of osteoclastogenesis in M-CSF/RANKL-induced osteoclast differentiation in C57BL/6J mouse BMDM cells assessed as decrease in c-Fos mRNA level at 1 uM measured for 5 days by qRT-PCR analysis; format: functional, cell-based; settings: time 5.0 day
BMDM [14] = assay: Inhibition of osteoclastogenesis in M-CSF/RANKL-induced osteoclast differentiation in C57BL/6J mouse BMDM cells assessed as reduction in p38 phosphorylation at 1 uM measured upto 60 mins by Western blot analysis; format: functional, cell-based
[15] = biological target: T2, Tumor necrosis factor ligand superfamily member 11 (Homo sapiens) (UniProt O14788); assay: Binding affinity to CM5 sensor chip-immobilized RANKL (unknown origin) by SPR analysis; settings: dose 0.98-31.25 µM
T2 sequence (whole entry): T1 sequence (O14788 whole entry)

[16] = biological target: T2, Tumor necrosis factor ligand superfamily member 11 (Homo sapiens); assay: Binding affinity to RANKL (unknown origin) incubated for 15 mins by RED-NHS dye based MST assay
MC3T3-E1 [17] = assay: Effect on osteoblast differentiation in mouse MC3T3-E1 cells assessed as change in ALP level at 0.5 to 2 uM incubated for 7 days by Western blot analysis; format: functional, cell-based; settings: dose 0.5-2 µM, time 7.0 day
[18] = Cytotoxicity against C57BL/6J mouse BMDM cells assessed as decrease in cell viability at 20 uM incubated for 48 hrs by MTT assay; format: toxicity, cell-based
BMDM [19] = assay: Inhibition of osteoclastogenesis in M-CSF/RANKL-induced osteoclast differentiation in C57BL/6J mouse BMDM cells assessed as reduction in ERK phosphorylation at 1 uM measured upto 60 mins by Western blot analysis; format: functional, cell-based
MC3T3-E1 [20] = assay: Effect on osteoblast differentiation in mouse MC3T3-E1 cells assessed as change in Runx2 mRNA level at 0.5 to 2 uM incubated for 7 days by qRT-PCR analysis; format: functional, cell-based; settings: dose 0.5-2 µM, time 7.0 day
Mus musculus [21] = assay: Anti-osteoporosis effect in OVX-induced osteoporosis C57BL/6 mouse model assessed as increase in Tb.Th value at 10 mg/kg, po administered every other day for 8 weeks by micro-CT analysis; format: functional, organism-based
[22] = Toxicity in OVX-induced osteoporosis C57BL/6 mouse model assessed as pathological change in liver at 10 mg/kg, po administered every other day for 8 weeks by H and E staining based analysis; format: organism-based; settings: in vivo, 1344 h
BMDM [23] = assay: Inhibition of osteoclastogenesis in M-CSF/RANKL-induced osteoclast differentiation in C57BL/6J mouse BMDM cells assessed as reduction in TRAP mRNA level measured after 5 days by qRT-PCR analysis; format: functional, cell-based; settings: dose <= 2.0 µM, time 5.0 day
[24] = Toxicity in OVX-induced osteoporosis C57BL/6 mouse model assessed as pathological change in heart at 10 mg/kg, po administered every other day for 8 weeks by H and E staining based analysis; format: organism-based; settings: in vivo, 1344 h
BMDM [25] = assay: Inhibition of osteoclastogenesis in M-CSF/RANKL-induced osteoclast differentiation in C57BL/6J mouse BMDM cells assessed as reduction in cathepsin K level measured after 5 days by Western blot analysis; format: functional, cell-based; settings: dose <= 2.0 µM, time 5.0 day
BMDM [26] = assay: Inhibition of osteoclastogenesis in M-CSF/RANKL-induced osteoclast differentiation in C57BL/6J mouse BMDM cells assessed as reduction in DC-STAMP mRNA level measured after 5 days by qRT-PCR analysis; format: functional, cell-based; settings: dose <= 2.0 µM, time 5.0 day
BMDM [27] = assay: Inhibition of osteoclastogenesis in M-CSF/RANKL-induced osteoclast differentiation in C57BL/6J mouse BMDM cells assessed as reduction in NFATc1 mRNA level measured after 5 days by qRT-PCR analysis; format: functional, cell-based; settings: dose <= 2.0 µM, time 5.0 day
Mus musculus [28] = assay: Anti-osteoporosis effect in OVX-induced osteoporosis C57BL/6 mouse model assessed as increase in number of osteoclasts to bone surface area ratio at 10 mg/kg, po administered every other day for 8 weeks by TRAP staining based analysis; format: functional, organism-based
BMDM [29] = assay: Inhibition of osteoclastogenesis in M-CSF/RANKL-induced osteoclast differentiation in C57BL/6J mouse BMDM cells assessed as reduction in I-kappaB-alpha phosphorylation at 1 uM measured upto 60 mins by Western blot analysis; format: functional, cell-based

O=C1C([Se]c2ccccc2)=C([Se]c2ccccc2)C(=O)N1Cc1ccccc1
pKd [1]: 6.04 | Activity [2]: Non-toxic | Activity (Mus musculus [3]): Active; Displayed Similar Effect With That Exhibited By Alendronate | Activity (BMDM [4]): No effect | inhibition (BMDM [5]): Active | Activity (MC3T3-E1 [6]): No effect | Activity (MC3T3-E1 [7]): No effect | Activity [8]: Non-toxic | Activity (BMDM [9]): No effect | Activity [10]: Non-toxic | Activity (MC3T3-E1 [11]): No effect | inhibition (BMDM [12]): Dose-dependent-effect | inhibition (BMDM [13]): Active | inhibition (BMDM [14]): Active | Activity [15]: Dose-dependent-effect | Activity [16]: 1.51 µM | Activity (MC3T3-E1 [17]): No effect | Activity [18]: Non-toxic | inhibition (BMDM [19]): Active | Activity (MC3T3-E1 [20]): No effect | Activity (Mus musculus [21]): Active; Displayed Similar Effect With That Exhibited By Alendronate | Activity [22]: Non-toxic | inhibition (BMDM [23]): Dose-dependent-effect | Activity [24]: Non-toxic | inhibition (BMDM [25]): Dose-dependent-effect | inhibition (BMDM [26]): Dose-dependent-effect | inhibition (BMDM [27]): Dose-dependent-effect | Activity (Mus musculus [28]): Active; Displayed Similar Effect With That Exhibited By Alendronate | inhibition (BMDM [29]): Active
